Molecular target: T1, human Npt2a (Homo sapiens, UniProt Q06495)
T1 construct: expressed in transfected cells
T1 sequence (Q06495 1-639): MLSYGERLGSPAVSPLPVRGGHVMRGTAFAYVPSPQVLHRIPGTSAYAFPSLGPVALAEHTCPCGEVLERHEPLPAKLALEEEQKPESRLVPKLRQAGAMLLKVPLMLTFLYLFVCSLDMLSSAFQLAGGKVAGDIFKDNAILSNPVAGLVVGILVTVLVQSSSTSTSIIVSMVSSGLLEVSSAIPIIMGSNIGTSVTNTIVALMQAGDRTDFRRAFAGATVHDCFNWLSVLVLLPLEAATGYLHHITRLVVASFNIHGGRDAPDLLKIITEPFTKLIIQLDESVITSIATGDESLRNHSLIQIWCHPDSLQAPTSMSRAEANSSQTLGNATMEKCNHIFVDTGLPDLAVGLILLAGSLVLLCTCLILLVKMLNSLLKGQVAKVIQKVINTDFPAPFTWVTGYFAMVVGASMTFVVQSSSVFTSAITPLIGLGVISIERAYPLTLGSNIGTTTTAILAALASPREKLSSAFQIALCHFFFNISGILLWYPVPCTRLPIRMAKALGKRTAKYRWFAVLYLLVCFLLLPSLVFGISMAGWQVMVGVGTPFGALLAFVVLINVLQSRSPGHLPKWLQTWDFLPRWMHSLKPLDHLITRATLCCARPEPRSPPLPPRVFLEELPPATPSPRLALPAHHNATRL
Experiment: Npt2a activity cell based assay, membrane potential dye, CHO T-REx hNpt2a cells
Settings: doxycycline-induced, depolarization by sodium phosphate influx, average or median values if tested more than once
Method in brief: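 Cells were doxycycline-induced CHO T-REx hNpt2a, dye-loaded and pretreated 5 min at RT with 1 nM–50 μM compound in Na-free pH 7.4 buffer. IC50 was fit to the post/pre-trigger fluorescence ratio.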

| SMILES | IC50 [nM] |
| --- | --- |
| CCOC(=O)c1c(C)nn(-c2cc(Nc3n[nH]c(-c4ccc(C#N)cc4)c3C)ncn2)c1C [Example 136, ethyl 1-(6-{[5-(4-cyanophenyl)-4-methyl-1H-pyrazol-3-yl]amino}pyrimidin-4-yl)-3,5-dimethyl-1H-pyrazole-4-carboxylate] | 360 |
| Cc1nn(-c2cc(Nc3n[nH]c(-c4ccc(C#N)cc4)c3C)ncn2)c(C)c1Cl [Example 137, 4-(3-{[6-(4-chloro-3,5-dimethyl-1H-pyrazol-1-yl)pyrimidin-4-yl]amino}-4-methyl-1H-pyrazol-5-yl)benzonitrile] | 71 |
| Cc1nn(-c2cc(Nc3nn(C)c(-c4ccc(F)cc4)c3C)ncn2)c(C)c1C1(O)CC1 [Example 138, 1-[1-(6-{[5-(4-fluorophenyl)-1,4-dimethyl-1H-pyrazol-3-yl]amino}pyrimidin-4-yl)-3,5-dimethyl-1H-pyrazol-4-yl]cyclopropanol] | 150 |
| Cc1nn(-c2cc(Nc3c(C)c(-c4ccc(F)cc4)nn3C)ncn2)c(C(F)F)c1Cl [Example 139, 6-[4-chloro-5-(difluoromethyl)-3-methyl-1H-pyrazol-1-yl]-N-[3-(4-fluorophenyl)-1,4-dimethyl-1H-pyrazol-5-yl]pyrimidin-4-amine] | 130 |
| Cc1nn(-c2cc(Nc3n[nH]c(-c4ccc(F)cc4)c3C)ncn2)c(C(F)F)c1Cl [Example 140, 6-[4-chloro-5-(difluoromethyl)-3-methyl-1H-pyrazol-1-yl]-N-[5-(4-fluorophenyl)-4-methyl-1H-pyrazol-3-yl]pyrimidin-4-amine] | 23 |
| Cc1cc(C)n(-c2cc(Nc3c(C)c(-c4ccc(C#N)cc4)nn3CC3CC3)ncn2)n1 [Example 141, 4-[1-(cyclopropylmethyl)-5-{[6-(3,5-dimethyl-1H-pyrazol-1-yl)pyrimidin-4-yl]amino}-4-methyl-1H-pyrazol-3-yl]benzonitrile] | 3 |
| Cc1cc(C(F)F)n(-c2cc(Nc3c(C)c(-c4ccc(C#N)cc4)nn3CC3CC3)ncn2)n1 [Example 142, 4-[1-(cyclopropylmethyl)-5-{(6-[5-(difluoromethyl)-3-methyl-1H-pyrazol-1-yl]pyrimidin-4-yl}amino)-4-methyl-1H-pyrazol-3-yl]benzonitrile] | 3 |
| CCc1c(Nc2cc(-n3nc(C)cc3C)ncn2)nn(CC2CC2)c1-c1ccc(F)cc1 [Example 143, N-[1-(cyclopropylmethyl)-4-ethyl-5-(4-fluorophenyl)-1H-pyrazol-3-yl]-6-(3,5-dimethyl-1H-pyrazol-1-yl)pyrimidin-4-amine] | 415 |
| CCc1c(Nc2cc(-n3nc(C)c(Cl)c3C)ncn2)nn(CC2CC2)c1-c1ccc(F)cc1 [Example 144, 6-(4-chloro-3,5-dimethyl-1H-pyrazol-1-yl)-N-[1-(cyclopropylmethyl)-4-ethyl-5-(4-fluorophenyl)-1H-pyrazol-3-yl]pyrimidin-4-amine] | 520 |
| CCOC(=O)c1c(C)nn(-c2cc(Nc3nn(CC4CC4)c(-c4ccc(F)cc4)c3CC)ncn2)c1C [Example 145, ethyl 1-(6-{[1-(cyclopropylmethyl)-4-ethyl-5-(4-fluorophenyl)-1H-pyrazol-3-yl]amino}pyrimidin-4-yl)-3,5-dimethyl-1H-pyrazole-4-carboxylate] | 170 |
| CCOC(=O)c1c(C)nn(-c2cc(Nc3c(CC)c(-c4ccc(F)cc4)nn3CC3CC3)ncn2)c1C [Example 147, ethyl 1-(6-{[1-(cyclopropylmethyl)-4-ethyl-3-(4-fluorophenyl)-1H-pyrazol-5-yl]amino}pyrimidin-4-yl)-3,5-dimethyl-1H-pyrazole-4-carboxylate] | 3 |
| CCc1c(-c2ccc(F)cc2)nn(CC2CC2)c1Nc1cc(-n2nc(C)c(Cl)c2C(F)F)ncn1 [Example 148, 6-[4-chloro-5-(difluoromethyl)-3-methyl-1H-pyrazol-1-yl]-N-[1-(cyclopropylmethyl)-4-ethyl-3-(4-fluorophenyl)-1H-pyrazol-5-yl]pyrimidin-4-amine] | 80 |
| CCOC(=O)c1c(C)nn(-c2cc(Nc3c(C)c(-c4ccc(C#N)cc4)nn3CC3CC3)ncn2)c1C [Example 149, ethyl 1-(6-{[3-(4-cyanophenyl)-1-(cyclopropylmethyl)-4-methyl-1H-pyrazol-5-yl]amino}pyrimidin-4-yl)-3,5-dimethyl-1H-pyrazole-4-carboxylate] | 7 |
| CCOC(=O)c1c(C)nn(-c2cc(Nc3nn(CC4CC4)c(-c4ccc(F)cc4)c3C)ncn2)c1C [Example 151, ethyl 1-(6-{[1-(cyclopropylmethyl)-5-(4-fluorophenyl)-4-methyl-1H-pyrazol-3-yl]amino}pyrimidin-4-yl)-3,5-dimethyl-1H-pyrazole-4-carboxylate] | 390 |
| CCOC(=O)c1c(C)nn(-c2cc(Nc3c(C)c(-c4ccc(F)cc4)nn3CC3CC3)ncn2)c1C [Example 152, ethyl 1-(6-{[1-(cyclopropylmethyl)-3-(4-fluorophenyl)-4-methyl-1H-pyrazol-5-yl]amino}pyrimidin-4-yl)-3,5-dimethyl-1H-pyrazole-4-carboxylate] | 6 |
| CCOC(=O)c1c(C)nn(-c2cc(Nc3nn(CC4CC4)c(-c4ccc(F)cc4)c3Cl)ncn2)c1C [Example 153, ethyl 1-(6-{[4-chloro-1-(cyclopropylmethyl)-5-(4-fluorophenyl)-1H-pyrazol-3-yl]amino}pyrimidin-4-yl)-3,5-dimethyl-1H-pyrazole-4-carboxylate] | 410 |
| Cc1nn(-c2cc(Nc3c(C)c(-c4ccc(C#N)cc4)nn3CC3CC3)ncn2)c(C(F)F)c1Cl [Example 154, 4-[5-({6-[4-chloro-5-(difluoromethyl)-3-methyl-1H-pyrazol-1-yl]pyrimidin-4-yl}amino)-1-(cyclopropylmethyl)-4-methyl-1H-pyrazol-3-yl]benzonitrile] | 3 |
| CCOC(=O)c1c(C)nn(-c2cc(Nc3c(CC)c(-c4ccc(F)cc4)nn3C)ncn2)c1C [Example 155, ethyl 1-(6-{[4-ethyl-3-(4-fluorophenyl)-1-methyl-1H-pyrazol-5-yl]amino}pyrimidin-4-yl)-3,5-dimethyl-1H-pyrazole-4-carboxylate] | 9 |
| CCOC(=O)c1c(C)nn(-c2cc(Nc3c(CC)c(-c4ccc(C#N)cc4)nn3CC3CC3)ncn2)c1C [Example 156, ethyl 1-(6-{[3-(4-cyanophenyl)-1-(cyclopropylmethyl)-4-ethyl-1H-pyrazol-5-yl]amino}pyrimidin-4-yl)-3,5-dimethyl-1H-pyrazole-4-carboxylate] | 2 |
| CCc1c(-c2ccc(C#N)cc2)nn(CC2CC2)c1Nc1cc(-n2nc(C)c(Cl)c2C)ncn1 [Example 157, 4-[5-{[6-(4-chloro-3,5-dimethyl-1H-pyrazol-1-yl)pyrimidin-4-yl]amino}-1-(cyclopropylmethyl)-4-ethyl-1H-pyrazol-3-yl]benzonitrile] | 6 |
| CCOC(=O)c1c(C)nn(-c2cc(Nc3c(Cl)c(-c4ccc(F)cc4)nn3CC3CC3)ncn2)c1C [Example 158, ethyl 1-(6-{[4-chloro-1-(cyclopropylmethyl)-3-(4-fluorophenyl)-1H-pyrazol-5-yl]amino}pyrimidin-4-yl)-3,5-dimethyl-1H-pyrazole-4-carboxylate] | 4 |
| Cc1nn(-c2cc(Nc3c(C)c(-c4ccc(F)cc4)nn3CC3CC3)ncn2)c(C)c1C(C)(C)O [Example 159, 2-[1-(6-{[1-(cyclopropylmethyl)-3-(4-fluorophenyl)-4-methyl-1H-pyrazol-5-yl]amino}pyrimidin-4-yl)-3,5-dimethyl-1H-pyrazol-4-yl]propan-2-ol] | 8 |

— patent US11208400B2, “Substituted 6-(1H-pyrazol-1-yl)pyrimidin-4-amine derivatives and uses thereof” (Bayer Aktiengesellschaft, priority 2016, dated 2021)
